Measured values from US9339554B2, “Tunable, biodegradable linker molecules for transient conjugation of components in drug delivery systems, and drug delivery systems prepared therewith” (CRISTAL DELIVERY B.V., priority 2010, dated 2016).

Test: In vitro release of DMS from DMS-prodrug-loaded core-cross-linked polymeric micelles
Format: physicochemical
Conditions: for 50% release of DMS: physiological conditions, prodrug covalently entrapped in CCL PM
Experimental: The eluent was acetonitril/H2O (23:77, v/v) with a flow rate of 1 mL/min. The sample volume was 7.5 μL. UV detection occurred at 246 nm.
The hydrolysis rate of a specific ester was pH-dependent in its turn, in that at pH 8.4 hydrolysis was accelerated as compared to the hydrolysis rate at pH 7.4. […] The same trend is consistently observed at different pH (i.e. 7.4 and 8.4) and for the different types of micelles (based on HPMAm and HEMAm).

C=C(C)C(=O)OCCS(=O)(=O)CC(=O)OCC(=O)[C@@]1(O)[C@H](C)CC2[C@@H]3CCC4=CC(=O)C=C[C@]4(C)[C@@]3(F)[C@@H](O)CC21C (stereo partly drawn) [DMSL3, 2-(2-(2-((8S,9R,10S,11S,16R,17R)-9-fluoro-11,17-dihydroxy-10,13,16-trimethyl-3-oxo-6,7,8,9,10,11,12,13,14,15,16,17-dodecahydro-3H-cyclopenta[α]phenanthren-17-yl)-2-oxoethoxy)-2-oxoethylsulfonyl)ethyl methacrylate]
50% release of DMS: ~1 weeks

C=C(C)C(=O)OCCSCC(=O)OCC(=O)[C@@]1(O)[C@H](C)CC2[C@@H]3CCC4=CC(=O)C=C[C@]4(C)[C@@]3(F)[C@@H](O)CC21C (stereo partly drawn) [DMSL1, 2-(2-(2-((8S,9R,10S,11S,16R,17R)-9-fluoro-11,17-dihydroxy-10,13,16-trimethyl-3-oxo-6,7,8,9,10,11,12,13,14,15,16,17-dodecahydro-3H-cyclopenta[α]phenanthren-17-yl)-2-oxoethoxy)-2-oxoethylthio)ethyl methacrylate]
50% release of DMS: ~4 weeks | DMS release rate followed by UPLC (prodrug CCL PM, buffer pH 7.4 / 8.4, 37° C.): very slow release
